In paper PMC3997483, “Aminostyrylbenzofuran Directly Reduces Oligomeric Amyloid-β and Reverses Cognitive Deficits in Alzheimer Transgenic Mice” (PLoS ONE, 2014):
Like-named read-outs stand apart in the source and are kept apart here.

Key:
[1] = Metabolic stability in liver microsomes; assay type: in vitro ADME; settings: dog liver microsomes
[2] = Pharmacokinetics IV/PO in monkeys; assay type: in vivo, cynomolgus monkeys; settings: for AUC(0-t): read-out: AUC0–24h
Procedure: Pharmacokinetics profile of KMS88009 was obtained using ICR mice, SD rats, beagle dogs and cynomolgus monkeys. Animals were fasted overnight before KMS88009 administration. Mice were divided into 2 groups to receive KMS88009 as a single dose of 2.1 mg/kg intravenous (IV) bolus or 10 mg/kg orally (PO) by gavage. Additionally, KMS88009 was administered orally to estimate the BBB penetration in mice (10, 30 and 100 mg/kg). […] Dog received KMS88009 either as an IV bolus (1 mg/kg) via the great saphenous vein or by oral gavage (4 mg/kg). […] Vehicle for IV and PO administration was DMSO/tween-20/saline (3.3∶19.8∶79.6). […]. Brain samples were weighed and Daunce-homogenized in 10-fold volume of ice-chilled 4% bovine serum albumin (BSA) solution at room temperature. Plasma and brain homogenates were kept frozen at −70°C until analysis. The levels of KMS88009 were determined by the LC-MS/MS analysis. Pharmacokinetic parameters, time to the maximum concentration (Tmax), maximum concentration (Cmax), elimination half-life (T1/2), volume of distribution (Vd), clearance (Cl) and mean residual time (MRT), of KMS88009 were calculated based on plasma concentration-time data by a non-compartmental method using WinNonlin Version 5.2 (Pharsight, USA). Area under the curve from 0 to 24 hr (AUC0-24h) and area under the curve from 0 to infinity (AUCINF) were obtained by linear and log linear trapezoidal summations.

CYP2C19 = biological target: T1, CYP2C19 (Homo sapiens, UniProt P33261); assay: CYP inhibition assay (Crespi, fluorescent probe); assay type: in vitro ADME
T1 construct: five CYP isozymes (CYP3A4, 1A2, 2C9, 2C19, and 2D6) from human LM; from tissue; host or cells: human liver microsomes
T1 sequence (P33261 whole entry): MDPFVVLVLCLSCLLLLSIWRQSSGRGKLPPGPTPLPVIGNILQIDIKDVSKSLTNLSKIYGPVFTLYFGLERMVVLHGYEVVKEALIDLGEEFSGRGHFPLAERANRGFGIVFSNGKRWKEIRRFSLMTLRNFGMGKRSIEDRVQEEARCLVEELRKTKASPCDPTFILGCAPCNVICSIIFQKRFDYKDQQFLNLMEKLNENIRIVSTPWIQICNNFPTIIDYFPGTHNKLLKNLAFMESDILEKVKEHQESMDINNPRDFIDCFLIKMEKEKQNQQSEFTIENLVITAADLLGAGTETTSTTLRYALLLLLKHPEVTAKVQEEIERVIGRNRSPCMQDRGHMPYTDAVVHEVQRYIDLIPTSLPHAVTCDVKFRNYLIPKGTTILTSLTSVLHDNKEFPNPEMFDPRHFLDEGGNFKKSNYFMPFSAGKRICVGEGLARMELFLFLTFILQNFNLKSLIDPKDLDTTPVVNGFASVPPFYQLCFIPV
Procedure: (§1) Cytochrome P450 (CYP) inhibition assay was carried out according to the principle of the Crespi assay. Fluorescent probe substrates (BD Gentest, USA) used for each CYP isozyme were: 3-cyano-7-ethoxycoumarin for CYP1A2 and CYP2C19, 7-benzyloxy-trifluoromethylcoumarin for CYP3A4, 7-methoxy-4-trifluoromethylcoumarin for CYP2C9 and 3-[2-(N,N-diethyl-N-methylamino)ethyl]-7-methoxy-4-methyl-coumarin for CYP2D6. […] All reactions were stopped by addition of 75 µL of 0.1 M tris in acetonitrile and analyzed by an LC-MS/MS product ion monitoring method on Agilent 1200 HPLC (Agilent, USA) and API-5000 mass spectrometer (Canada). IC50 value was calculated using SigmaPlot 10.0 (Systat Software Inc., USA).

CYP1A2 = biological target: T2, CYP1A2 (Homo sapiens, UniProt P05177); assay: CYP inhibition assay (Crespi, fluorescent probe); assay type: in vitro ADME
T2 construct: five CYP isozymes (CYP3A4, 1A2, 2C9, 2C19, and 2D6) from human LM; from tissue; host or cells: human liver microsomes
T2 sequence (P05177 1-516): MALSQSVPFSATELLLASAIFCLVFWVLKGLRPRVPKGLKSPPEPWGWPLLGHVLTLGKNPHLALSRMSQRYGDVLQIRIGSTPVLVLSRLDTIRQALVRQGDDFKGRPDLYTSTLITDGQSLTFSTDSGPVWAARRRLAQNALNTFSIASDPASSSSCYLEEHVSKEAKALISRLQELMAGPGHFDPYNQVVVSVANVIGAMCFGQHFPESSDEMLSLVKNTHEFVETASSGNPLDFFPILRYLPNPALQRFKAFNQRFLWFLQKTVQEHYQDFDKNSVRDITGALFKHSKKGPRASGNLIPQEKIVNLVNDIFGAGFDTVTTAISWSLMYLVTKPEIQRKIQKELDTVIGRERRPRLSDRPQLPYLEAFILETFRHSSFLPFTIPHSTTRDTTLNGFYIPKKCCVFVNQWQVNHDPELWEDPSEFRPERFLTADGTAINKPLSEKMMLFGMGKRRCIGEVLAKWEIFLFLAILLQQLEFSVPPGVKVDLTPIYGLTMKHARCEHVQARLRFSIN
Procedure: as §1

CYP2D6 = biological target: T3, CYP2D6 (Homo sapiens, UniProt P10635); assay: CYP inhibition assay (Crespi, fluorescent probe); assay type: in vitro ADME
T3 construct: five CYP isozymes (CYP3A4, 1A2, 2C9, 2C19, and 2D6) from human LM; from tissue; host or cells: human liver microsomes
T3 sequence (P10635 whole entry): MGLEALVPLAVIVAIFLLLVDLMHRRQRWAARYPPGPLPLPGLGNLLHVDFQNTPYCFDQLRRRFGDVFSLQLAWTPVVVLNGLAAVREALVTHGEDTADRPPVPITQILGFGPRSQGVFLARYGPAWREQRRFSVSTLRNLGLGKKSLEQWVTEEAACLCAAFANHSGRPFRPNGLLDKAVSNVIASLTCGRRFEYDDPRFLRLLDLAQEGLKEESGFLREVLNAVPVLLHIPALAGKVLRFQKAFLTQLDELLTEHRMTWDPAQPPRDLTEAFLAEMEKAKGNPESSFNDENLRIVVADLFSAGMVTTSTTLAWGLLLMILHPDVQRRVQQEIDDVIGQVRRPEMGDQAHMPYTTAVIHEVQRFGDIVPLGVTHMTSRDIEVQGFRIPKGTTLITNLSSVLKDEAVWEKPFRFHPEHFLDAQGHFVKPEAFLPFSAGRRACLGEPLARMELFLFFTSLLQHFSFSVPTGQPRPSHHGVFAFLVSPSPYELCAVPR
Procedure: as §1

CYP3A4 = biological target: T4, CYP3A4 (Homo sapiens, UniProt P08684); assay: CYP inhibition assay (Crespi, fluorescent probe); assay type: in vitro ADME
T4 construct: five CYP isozymes (CYP3A4, 1A2, 2C9, 2C19, and 2D6) from human LM; from tissue; host or cells: human liver microsomes
T4 sequence (P08684 whole entry): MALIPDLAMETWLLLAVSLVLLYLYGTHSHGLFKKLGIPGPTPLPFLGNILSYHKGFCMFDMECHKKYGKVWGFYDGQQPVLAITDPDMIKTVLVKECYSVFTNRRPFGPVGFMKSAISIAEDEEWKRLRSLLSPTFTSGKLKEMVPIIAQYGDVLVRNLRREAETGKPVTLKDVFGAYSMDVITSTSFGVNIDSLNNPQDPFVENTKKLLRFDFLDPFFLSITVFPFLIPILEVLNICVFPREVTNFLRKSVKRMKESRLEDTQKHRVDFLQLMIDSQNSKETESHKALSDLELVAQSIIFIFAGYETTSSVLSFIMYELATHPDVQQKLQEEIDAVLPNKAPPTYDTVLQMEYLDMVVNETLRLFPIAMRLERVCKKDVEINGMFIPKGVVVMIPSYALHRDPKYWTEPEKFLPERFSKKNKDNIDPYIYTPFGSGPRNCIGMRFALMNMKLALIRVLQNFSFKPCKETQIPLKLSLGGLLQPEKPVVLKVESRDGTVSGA
Procedure: as §1

CYP2C9 = biological target: T5, CYP2C9 (Homo sapiens, UniProt P11712); assay: CYP inhibition assay (Crespi, fluorescent probe); assay type: in vitro ADME
T5 construct: five CYP isozymes (CYP3A4, 1A2, 2C9, 2C19, and 2D6) from human LM; from tissue; host or cells: human liver microsomes
T5 sequence (P11712 whole entry): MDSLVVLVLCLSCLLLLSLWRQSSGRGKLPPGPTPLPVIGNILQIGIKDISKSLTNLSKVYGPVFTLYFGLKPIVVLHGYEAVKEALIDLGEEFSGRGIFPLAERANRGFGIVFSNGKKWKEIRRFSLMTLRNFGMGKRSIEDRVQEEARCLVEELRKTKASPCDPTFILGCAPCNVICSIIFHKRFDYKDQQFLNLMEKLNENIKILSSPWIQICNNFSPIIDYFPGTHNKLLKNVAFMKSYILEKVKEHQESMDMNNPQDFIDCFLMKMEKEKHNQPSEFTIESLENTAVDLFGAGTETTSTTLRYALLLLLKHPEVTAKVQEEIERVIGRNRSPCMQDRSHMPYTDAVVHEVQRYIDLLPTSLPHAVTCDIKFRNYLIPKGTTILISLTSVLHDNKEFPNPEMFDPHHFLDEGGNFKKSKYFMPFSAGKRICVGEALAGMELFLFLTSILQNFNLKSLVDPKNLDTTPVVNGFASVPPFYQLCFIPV
Procedure: as §1

[3] = cynomolgus monkey, plasma, monkey IV 0.77 mg/kg
[4] = cynomolgus monkey, plasma, monkey PO 5.6 mg/kg
[5] = cynomolgus monkey, monkey IV 0.77 mg/kg, plasma
[6] = cynomolgus monkey, monkey PO 5.6 mg/kg, plasma

In the case of `COc1ccc2cc(C=Cc3ccc(N(C)C)cc3)oc2c1` [KMS88009, 6-methoxy-2-(4-dimethylaminostyryl) benzofuran], the half-life at 5 µM [1] is reported as 0.355 ± 0.0133 h, the remaining at 1 h, 5 µM ([1]; read-out: Remaining % of parent molecule at 60 min.) is reported as 14.8 ± 0.2% and the MRT last [2, 3] is reported as 3.6 ± 0.5 h. The Vd [2, 3] was 4.4 ± 1.1 L/kg, the clearance [2, 3] was 8.33 mL/min/kg and the half-life [2, 3] was 5.8 ± 0.8 h. It also gave an MRT last [2, 4] of 5.9 ± 0.6 h, a Tmax [2, 4] of 2.7 ± 1.2 h and a half-life [2, 4] of 4.3 ± 0.2 h. It also gave an AUC(0-inf) [2, 5] of 1590 ± 576 ng·h/mL, an AUC(0-t) [2, 5] of 1540 ± 550 ng·h/mL and an AUC(0-inf) [2, 6] of 3920 ± 1480 ng·h/mL. The Cmax [2, 6] was 505 ± 78.3 ng/mL, the AUC(0-t) [2, 6] was 3810 ± 1430 ng·h/mL and the BA ([2]; monkey PO 5.6 mg/kg vs IV 0.77 mg/kg) was 34.1%. For the same compound, the IC50 (CYP2C19) was 2.51 ± 0.21 µM, the IC50 (CYP1A2) was 0.74 ± 0.12 µM and the IC50 (CYP2D6) was > 50 µM. It also gave an IC50 (CYP3A4) of 9.84 ± 0.15 µM and an IC50 (CYP2C9) of 22.4 ± 1.25 µM.
